Source: patent US10077261B2, “Imidazolin-5-one derivative useful as FASN inhibitors for the treatment of cancer” (Janssen Pharmaceutica NV, priority 2012, dated 2018)

Key:
[1] = biological target: T1, hFASN enzyme (full length) (Homo sapiens, UniProt P49327); experiment: Fatty Acid Synthase (FASN) inhibition scintillation proximity assay; assay type: biochemical; details: for inhibition at 10 µM: read-out: Human FASN % inhibition @ 10 μM, 10 μM test compound; for IC50: read-out: Human FASN pIC50 (converted)
T1 construct: 10 μL hFASN enzyme (full length, 300 ng, purified in house); made in house
T1 sequence (P49327 whole entry): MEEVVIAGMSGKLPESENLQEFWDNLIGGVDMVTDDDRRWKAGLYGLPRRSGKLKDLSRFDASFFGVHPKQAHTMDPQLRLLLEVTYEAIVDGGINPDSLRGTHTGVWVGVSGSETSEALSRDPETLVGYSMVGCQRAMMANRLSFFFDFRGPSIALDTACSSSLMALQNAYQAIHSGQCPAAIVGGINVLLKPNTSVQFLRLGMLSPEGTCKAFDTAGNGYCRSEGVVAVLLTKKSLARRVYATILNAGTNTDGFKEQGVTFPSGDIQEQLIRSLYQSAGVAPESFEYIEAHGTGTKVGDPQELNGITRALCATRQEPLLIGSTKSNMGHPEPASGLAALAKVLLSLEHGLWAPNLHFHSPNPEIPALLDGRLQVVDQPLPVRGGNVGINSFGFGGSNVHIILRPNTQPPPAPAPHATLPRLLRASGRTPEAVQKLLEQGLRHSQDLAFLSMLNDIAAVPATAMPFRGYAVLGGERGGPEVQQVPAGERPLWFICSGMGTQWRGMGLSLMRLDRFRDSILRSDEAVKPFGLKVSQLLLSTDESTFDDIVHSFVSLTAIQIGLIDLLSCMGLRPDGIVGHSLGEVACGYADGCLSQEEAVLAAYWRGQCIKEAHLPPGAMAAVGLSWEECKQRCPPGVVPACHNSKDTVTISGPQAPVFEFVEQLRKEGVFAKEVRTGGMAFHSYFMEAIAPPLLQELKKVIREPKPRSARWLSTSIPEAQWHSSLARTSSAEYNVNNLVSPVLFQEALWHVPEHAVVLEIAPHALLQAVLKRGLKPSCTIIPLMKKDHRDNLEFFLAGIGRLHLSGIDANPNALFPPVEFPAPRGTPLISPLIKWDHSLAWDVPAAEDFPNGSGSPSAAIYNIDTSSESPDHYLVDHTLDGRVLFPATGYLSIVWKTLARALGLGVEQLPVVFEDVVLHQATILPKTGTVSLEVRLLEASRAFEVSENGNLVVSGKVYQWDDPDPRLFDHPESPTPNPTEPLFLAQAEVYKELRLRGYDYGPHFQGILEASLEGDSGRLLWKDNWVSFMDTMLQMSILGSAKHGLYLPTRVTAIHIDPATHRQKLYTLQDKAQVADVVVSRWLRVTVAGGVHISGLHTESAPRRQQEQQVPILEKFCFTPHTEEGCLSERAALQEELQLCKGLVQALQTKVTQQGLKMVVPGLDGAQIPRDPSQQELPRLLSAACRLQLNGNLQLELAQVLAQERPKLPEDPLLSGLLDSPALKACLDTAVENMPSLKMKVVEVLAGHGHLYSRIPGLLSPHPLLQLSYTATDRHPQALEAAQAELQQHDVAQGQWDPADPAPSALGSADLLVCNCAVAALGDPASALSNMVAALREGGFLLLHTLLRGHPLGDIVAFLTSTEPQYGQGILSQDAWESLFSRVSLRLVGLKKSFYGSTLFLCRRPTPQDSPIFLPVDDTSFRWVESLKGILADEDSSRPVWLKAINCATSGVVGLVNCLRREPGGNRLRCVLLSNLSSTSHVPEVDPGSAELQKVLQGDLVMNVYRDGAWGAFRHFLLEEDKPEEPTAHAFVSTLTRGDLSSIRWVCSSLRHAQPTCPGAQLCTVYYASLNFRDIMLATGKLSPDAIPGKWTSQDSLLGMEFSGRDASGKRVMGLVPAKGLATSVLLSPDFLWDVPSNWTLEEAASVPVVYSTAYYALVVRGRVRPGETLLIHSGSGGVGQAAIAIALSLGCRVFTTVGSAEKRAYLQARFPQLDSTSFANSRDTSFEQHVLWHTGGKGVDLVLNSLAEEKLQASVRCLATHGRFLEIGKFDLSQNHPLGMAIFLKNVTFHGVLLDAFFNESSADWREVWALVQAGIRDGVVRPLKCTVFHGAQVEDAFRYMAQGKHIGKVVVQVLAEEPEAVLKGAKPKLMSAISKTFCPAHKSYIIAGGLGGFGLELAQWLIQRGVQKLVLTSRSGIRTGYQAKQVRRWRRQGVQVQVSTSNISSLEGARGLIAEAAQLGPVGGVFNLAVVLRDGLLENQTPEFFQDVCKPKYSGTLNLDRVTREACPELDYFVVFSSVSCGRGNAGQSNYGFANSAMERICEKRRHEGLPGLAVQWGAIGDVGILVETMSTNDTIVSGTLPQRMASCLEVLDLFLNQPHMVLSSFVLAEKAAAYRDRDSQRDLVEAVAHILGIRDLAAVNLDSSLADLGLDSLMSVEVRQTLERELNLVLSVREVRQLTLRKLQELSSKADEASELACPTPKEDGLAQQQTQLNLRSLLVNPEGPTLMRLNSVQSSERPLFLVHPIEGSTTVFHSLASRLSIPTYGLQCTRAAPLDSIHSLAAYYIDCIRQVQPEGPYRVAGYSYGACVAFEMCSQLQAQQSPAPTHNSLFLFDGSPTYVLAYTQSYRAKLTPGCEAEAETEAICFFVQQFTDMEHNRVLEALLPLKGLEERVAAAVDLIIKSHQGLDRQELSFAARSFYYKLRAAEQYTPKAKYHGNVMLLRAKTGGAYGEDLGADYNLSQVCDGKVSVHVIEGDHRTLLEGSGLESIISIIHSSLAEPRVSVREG
Method in brief: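 Compounds at 0.01–30 μM were mixed with 300 ng purified full-length enzyme in 100 mM KH2PO4 pH 7.5, 1 mM DTT. Substrates ³H-acetyl-CoA and malonyl-CoA were then converted, and bead addition stopped the reaction. Signal was normalised to low and high plate controls and fitted by 4-parameter nonlinear regression.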

A2780 ovarian cells [2] = experiment: A2780 ovarian cell proliferation assay in lipid reduced medium, with palmitate (MTT); assay type: cell-based; details: Homo sapiens, A2780, 96 h; read-out: pIC50 A2780 Ovarian Cell, With Palmitate (converted)
Method in brief: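 Seeded cells were switched next day to lipid-reduced serum, exposed to compound and 25 μM palmitate complexed with fatty-acid-free BSA, and incubated 96 h. Proliferation was then determined by MTT absorbance at 544 nm, with a best-fit curve of signal against concentration.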

A2780 ovarian cells [3] = experiment: A2780 ovarian cell proliferation assay in lipid reduced medium, without palmitate (MTT); assay type: cell-based; details: Homo sapiens, A2780, 96 h; read-out: pIC50 A2780 Ovarian Cell, Without Palmitate (converted)
[4] = biological target: Fatty Acid Synthase Keto-reductase Domain (FASN KR) (Homo sapiens, UniProt P49327); experiment: Fatty Acid Synthase keto-reductase domain (FASN KR) inhibition, NADPH oxidation at 340 nm
Sequence of Fatty Acid Synthase Keto-reductase Domain (FASN KR) (P49327 whole entry, the tested form may be a part): as the sequence (P49327 whole entry) above
Description: After 20 minutes incubation at room temperature the plate was measured again (T2).
The decrease in absorbance was calculated as (Absorbance before incubation T1)−(Absorbance following incubation T2).
A plot of Controlmin versus test compound concentration was fitted to a 4-parameter logistic curve using a non-linear least squares regression method.

| inhibition at 10 µM [1] [%] | IC50 [1] [nM] | IC50 (A2780 ovarian cells [2]) [nM] | IC50 (A2780 ovarian cells [3]) [nM] | IC50 [4] [nM] | Structure (SMILES) |
| --- | --- | --- | --- | --- | --- |
| 111 | 145 | > 10000 | ~2140 | 891 | Cc1cc(-c2ccc(Cl)cc2Cl)ccc1C1=NC2(CCCC2)C(=O)N1C[C@@H]1CCN(C(=O)C2CC2)C1 [compound 94, 3-{[(3R)-1-(Cyclopropylcarbonyl)pyrrolidin-3-yl]methyl}-2-(2′,4′-dichloro-3-methylbiphenyl-4-yl)-1,3-diazaspiro[4.4]non-1-en-4-one] |
| 110 | 74.1 | > 10000 | 776 | 209 | Cc1ccc(-c2ccc(C3=NC4(CC4)C(=O)N3C[C@@H]3CCN(C(=O)C4CC4)C3)cc2)cc1 [compound 100, 6-{[(3R)-1-(Cyclopropylcarbonyl)pyrrolidin-3-yl]methyl}-5-(4′-methylbiphenyl-4-yl)-4,6-diazaspiro[2.4]hept-4-en-7-one] |
| 112 | 81.3 | > 10000 | 1700 | 380 | Cc1cccc(-c2ccc(C3=NC4(CC4)C(=O)N3C[C@@H]3CCN(C(=O)C4CC4)C3)cc2)c1 [compound 101, 6-{[(3R)-1-(Cyclopropylcarbonyl)pyrrolidin-3-yl]methyl}-5-(3′-methylbiphenyl-4-yl)-4,6-diazaspiro[2.4]hept-4-en-7-one] |
| 107 | 209 | > 10000 | 2290 | 1070 | O=C(C1CC1)N1CC[C@@H](CN2C(=O)C3(CC3)N=C2c2ccc(-c3cccc(F)c3)cc2)C1 [compound 102, 6-{[(3R)-1-(Cyclopropylcarbonyl)pyrrolidin-3-yl]methyl}-5-(3′-fluorobiphenyl-4-yl)-4,6-diazaspiro[2.4]hept-4-en-7-one] |
| 109 | 67.6 | > 10000 | 851 | 316 | COc1ccc(-c2ccc(C3=NC4(CC4)C(=O)N3C[C@@H]3CCN(C(=O)C4CC4)C3)cc2)cc1 [compound 103, 6-{[(3R)-1-(Cyclopropylcarbonyl)pyrrolidin-3-yl]methyl}-5-(4′-methoxybiphenyl-4-yl)-4,6-diazaspiro[2.4]hept-4-en-7-one] |
| 104 | 100 | > 10000 | 955 | 501 | O=C(C1CC1)N1CC[C@@H](CN2C(=O)C3(CC3)N=C2c2ccc(-c3ccc(F)cc3)cc2)C1 [compound 105, 6-{[(3R)-1-(Cyclopropylcarbonyl)pyrrolidin-3-yl]methyl}-5-(4′-fluorobiphenyl-4-yl)-4,6-diazaspiro[2.4]hept-4-en-7-one] |
| 110 | 112 | > 10000 | 741 | 603 | O=C(C1CC1)N1CC[C@@H](CN2C(=O)C3(CCNCC3)N=C2c2ccc(-c3ccc4cnccc4c3)cc2)C1 [compound 106, 3-{[(3R)-1-(Cyclopropylcarbonyl)pyrrolidin-3-yl]methyl}-2-(4-isoquinolin-6-ylphenyl)-1,3,8-triazaspiro[4.5]dec-1-en-4-one] |
| 109 | 117 | > 10000 | ~1780 | 1070 | COc1cccc(-c2ccc(C3=NC4(CC4)C(=O)N3C[C@@H]3CCN(C(=O)C4CC4)C3)cc2)c1 [compound 113, 6-{[(3R)-1-(Cyclopropylcarbonyl)pyrrolidin-3-yl]methyl}-5-(3′-methoxybiphenyl-4-yl)-4,6-diazaspiro[2.4]hept-4-en-7-one] |
| 107 | 75.9 | > 10000 | ~832 | 234 | O=C(C1CC1)N1CC[C@@H](CN2C(=O)C3(CC3)N=C2c2ccc(-c3ccc(Cl)cc3)cc2)C1 [compound 114, 5-(4′-Chlorobiphenyl-4-yl)-6-{[(3R)-1-(cyclopropylcarbonyl)pyrrolidin-3-yl]methyl}-4,6-diazaspiro[2.4]hept-4-en-7-one] |
| 113 | 30.2 | > 10000 | ~61.7 | 123 | O=C(C1CC1)N1CC[C@@H](CN2C(=O)C3(CC3)N=C2c2ccc(-c3cccc(O)c3)cc2)C1 [compound 115, 6-{[(3R)-1-(Cyclopropylcarbonyl)pyrrolidin-3-yl]methyl}-5-(3′-hydroxybiphenyl-4-yl)-4,6-diazaspiro[2.4]hept-4-en-7-one] |
| 103 | 89.1 | > 10000 | 52.5 | 170 | O=C(C1CC1)N1CC[C@H](CN2C(=O)C3(CC3)N=C2c2ccc(-c3ccc4[nH]ccc4c3)cc2)C1 [compound 210, (S)-5-(4-(1H-indol-5-yl)phenyl)-6-((1-(cy7clopropanecarbonyl)pyrrolidin-3-yl)methyl)-4,6-diazaspiro[2.4]hept-4-en-7-one] |
| 107 | 85.1 | > 10000 | ~708 | 200 | O=C(C1CC1)N1CC[C@H](CN2C(=O)C3(CC3)N=C2c2ccc(-c3ccc4sccc4c3)cc2)C1 [compound 211, (S)-5-(4-(benzo[b]thiophen-5-yl)phenyl)-6-((1-(cyclopropanecarbonyl)pyrrolidin-3-yl)methyl)-4,6-diazaspiro[2.4]hept-4-en-7-one] |
| 113 | 25.7 | > 10000 | ~692 | 69.2 | Cc1cc(-c2ccc3occc3c2)ccc1C1=NC2(CC2)C(=O)N1C[C@@H]1CCN(C(=O)C2CC2)C1 [compound 278, (R)-5-(4-(benzofuran-5-yl)-2-methylphenyl)-6-((1-(cyclopropanecarbonyl)pyrrolidin-3-yl)methyl)-4,6-diazaspiro[2.4]hept-4-en-7-one] |
| 107 | 28.2 | > 10000 | 407 | 44.7 | Cc1cc(-c2ccc3sccc3c2)ccc1C1=NC2(CC2)C(=O)N1C[C@@H]1CCN(C(=O)C2CC2)C1 [compound 279, (R)-5-(4-(benzo[d]thiophen-5-yl)-2-methylphenyl)-6-((1-(cyclopropanecarbonyl)pyrrolidin-3-yl)methyl)-4,6-diazaspiro[2.4]hept-4-en-7-one] |
| 109 | 30.2 | > 10000 | ~1950 | 126 | Cc1cc2cc(-c3ccc(C4=NC5(CC5)C(=O)N4C[C@@H]4CCN(C(=O)C5CC5)C4)c(C)c3)ccc2o1 [compound 280, (R)-6-((1-(cyclopropanecarbonyl)pyrrolidin-3-yl)methyl)-5-(2-methyl-4-(2-methylbenzofuran-5-yl)phenyl)-4,6-diazaspiro[2.4]hept-4-en-7-one] |
| 114 | 44.7 | > 6170 | ~813 | 110 | Cc1cc2cc(-c3ccc(C4=NC5(CC5)C(=O)N4C[C@@H]4CCN(C(=O)C5CC5)C4)c(C)c3)ccc2s1 [compound 281, (R)-6-((1-(cyclopropanecarbonyl)pyrrolidin-3-yl)methyl)-5-(2-methyl-4-(2-methylbenzo[b]thiophen-5-yl)phenyl)-4,6-diazaspiro[2.4]hept-4-en-7-one] |
| 112 | 41.7 | > 10000 | ~1860 | 93.3 | Cc1cc(-c2ccc3sc(C)c(C)c3c2)ccc1C1=NC2(CC2)C(=O)N1C[C@@H]1CCN(C(=O)C2CC2)C1 [compound 283, (R)-6-((1-(cyclopropanecarbonyl)pyrrolidin-3-yl)methyl)-5-(4-(2,3-dimethylbenzo[b]thiophen-5-yl)-2-methylphenyl)-4,6-diazaspiro[2.4]hept-4-en-7-one] |
| 110 | 43.7 | > 10000 | ~282 | 166 | Cc1cc(-c2ccc3occc3c2)ccc1C1=NC2(CC2)C(=O)N1CC1CN(C(=O)C2CC2)C1 [compound 287, 5-(4-(benzofuran-5-yl)-2-methylphenyl)-6-((1-(cyclopropanecarbonyl)azetidin-3-yl)methyl)-4,6-diazaspiro[2.4]hept-4-en-7-one] |
| 102 | 97.7 | > 10000 | 1120 | 324 | Cc1cc2cc(-c3ccc(C4=NC5(CC5)C(=O)N4CC4CN(C(=O)C5CC5)C4)c(C)c3)ccc2o1 [compound 289, 6-((1-(cyclopropanecarbonyl)azetidin-3-yl)methyl)-5-(2-methyl-4-(2-methylbenzofuran-5-yl)phenyl)-4,6-diazspiro[2.4]hept-4-en-7-one] |

| Structure (SMILES) | inhibition at 10 µM [1] [%] | IC50 [1] [nM] | IC50 (A2780 ovarian cells [2]) [nM] | IC50 (A2780 ovarian cells [3]) [nM] | IC50 [4] [nM] |
| --- | --- | --- | --- | --- | --- |
| O=C(C1CC1)N1CC[C@@H](CN2C(=O)C3(CC3)N=C2c2ccc(-c3ccc(-c4ccncc4)cc3)cc2)C1 [compound 235, (R)-6-((1-(cyclopropanecarbonyl)pyrrolidin-3-yl)methyl)-5-(4′-(pyridin-4-yl)-[1,1′-biphenyl]-4-yl)-4,6-diazaspiro[2.4]hept-4-en-7-one] | 111 | 23.4 | > 10000 | 10 | 45.7 |
